Laboratory results as given in US11672817B2, “Maltosyl-Isomaltooligosaccharides” (ISOThrive Inc., priority 2016, dated 2023).
No end group written: not given here.

Columns and labels:
[1] = test system: Weissella viridescens NRRL B-1951; assay: HPLC of culture supernatants: consumption of glucose and production of organic acids with nisin; assay type: cell-based; settings: for acetic acid in the fermentation media: MRS media originally contained 7% acetate
Protocol: (§1) 100 g MRS media was prepared to contain 5.5% solids. Two sets (one set each for nisin A and nisin Z) of eight Hach-type tubes (Kimble Chase 45066-16100) were prepared. Within each set, in order was added 5.00, 4.95, 4.90, 4.75, 4.50, 4.00, 3.50 and 3.00 g MRS media. The tubes were sealed and autoclaved.
(§2) To each tube was added, of the appropriate nisin stock, 0.00, 0.05, 0.10, 0.25, 0.50, 1.00, 1.50, and 2.00 g. Each tube was inoculated with 0.25 g of late-log W. viridescens NRRL B-1951 culture. The tubes were sealed and the absorbance at 600 nm was quickly measured (Hach DR900). The tubes were segregated by set and incubated at 31° C. overnight (15 Hr).
Each tube was sampled (1.5 mL conical polypropylene centrifuge tubes) and centrifuged at 10 kRPM for 10 minutes to remove and suspended cells. The resulting supernatants were filtered (0.2 μm nylon), diluted to 0.5% solids, and analyzed by high pressure liquid chromatography (HPLC, Agilent 1100, refractive index detector and BioRad Ainex HPX-87H column) for consumption of glucose and production of organic acids. The following table illustrates the concentration of sugars such as glucose and production of organic acids during the incubation.
Note that the MRS media originally contained 7% acetate; therefore 7% should be subtracted from the values for acetate in the above table to ascertain the amount of acetate generated during the assay.

[2] = test system: Weissella viridescens NRRL B-1951; assay: W. viridescens culture absorbance (growth) with nisin; assay type: cell-based; set-up: key to Corrected ABS 610rs: A600 minus background absorbance taken just after inoculation; settings: for 91516 ABS 610f: final absorbance, uncorrected
Protocol: Purified nisin A and Z are commercially available and were acquired from Handary S. A. (Brussels Belgium). Certificates of analysis for each lot indicated purities of 95.2 and 99.6% for nisin A and Z, respectively.
100 g De-Man, Rogosa and Sharpe (MRS) media was prepared in a 500 mL Erlenmeyer to contain 5.5% solids in deionized water (18.2 MS2, Hydro Service and Supplies, Gaithersburg, Md.). The media was autoclaved (121° C. 15 min), cooled, and inoculated with 1 mL (0.5 mL culture+0.5 mL glycerol, 40%; frozen at −78° C.) of Weissella viridescens NRRL B-1951 (test strain). The culture was incubated at 31° C. overnight (15 Hr).
The next day, stock solutions of either nisin A or Z were prepared in deionized water to contain 31.3 and 33.7 μg/g of each peptide.
as §1, §2
Each tube was thoroughly mixed to suspend settled cells and the absorbance was measured again at 600 nm. The final absorbance values for each sample were corrected for their respective background (taken just after inoculation, scattered light from added cells). The corrected absorption values were a measure of W. viridescens growth. The corrected values were plotted against nisin concentration and minimum inhibiting concentration approximated via regression.

For “nisin A (ITSISLCTPGCKTGALMGCNMKTATCHCSIHVSK; not fully specified (residues 2, 5, 33, bridges); also: lantibiotic (thioether rings, dehydrated residues not placed); UniProt P13068 24-57, looked up) [Purified nisin A, commercially available, acquired from Handary S. A; purity 95.2%; bacteriocin peptide]”, the “Maltotriose in the fermentation media” value ([1]; nisin A 0.33 μg/g (tube A2)) was 0.312 %/brix, the “ethanol in the fermentation media” value ([1]; nisin A 0.33 μg/g (tube A2)) was 0.068 %/brix and the “formic acid in the fermentation media” value ([1]; nisin A 0.33 μg/g (tube A2)) was 0.263 %/brix. For the same substance, the “fructose in the fermentation media” value ([1]; nisin A 0.33 μg/g (tube A2)) was 0.000 %/brix, the “glucose in the fermentation media” value ([1]; nisin A 0.33 μg/g (tube A2)) was 23.122 %/brix and the “glycerol in the fermentation media” value ([1]; nisin A 0.33 μg/g (tube A2)) was 0.292 %/brix. The “lactic acid in the fermentation media” value ([1]; nisin A 0.33 μg/g (tube A2)) was 6.884 %/brix, the “maltose in the fermentation media” value ([1]; nisin A 0.33 μg/g (tube A2)) was 0.581 %/brix and the “acetic acid in the fermentation media” value ([1]; nisin A 0.33 μg/g (tube A2)) was 7.967 %/brix. The “Maltotriose in the fermentation media” value ([1]; nisin A 1.38 μg/g (tube A4)) was 0.298 %/brix, the “ethanol in the fermentation media” value ([1]; nisin A 1.38 μg/g (tube A4)) was 0.062 %/brix and the “formic acid in the fermentation media” value ([1]; nisin A 1.38 μg/g (tube A4)) was 0.282 %/brix. The “fructose in the fermentation media” value ([1]; nisin A 1.38 μg/g (tube A4)) was 0.000 %/brix, the “glucose in the fermentation media” value ([1]; nisin A 1.38 μg/g (tube A4)) was 24.138 %/brix and the “glycerol in the fermentation media” value ([1]; nisin A 1.38 μg/g (tube A4)) was 0.319 %/brix. The “lactic acid in the fermentation media” value ([1]; nisin A 1.38 μg/g (tube A4)) was 5.496 %/brix, the “maltose in the fermentation media” value ([1]; nisin A 1.38 μg/g (tube A4)) was 0.815 %/brix and the “acetic acid in the fermentation media” value ([1]; nisin A 1.38 μg/g (tube A4)) was 8.219 %/brix. For the same substance, the “Maltotriose in the fermentation media” value ([1]; nisin A 3.08 μg/g (tube A5)) was 0.276 %/brix, the “ethanol in the fermentation media” value ([1]; nisin A 3.08 μg/g (tube A5)) was 0.094 %/brix and the “formic acid in the fermentation media” value ([1]; nisin A 3.08 μg/g (tube A5)) was 0.407 %/brix. For the same substance, the “fructose in the fermentation media” value ([1]; nisin A 3.08 μg/g (tube A5)) was 0.000 %/brix, the “glucose in the fermentation media” value ([1]; nisin A 3.08 μg/g (tube A5)) was 24.698 %/brix and the “glycerol in the fermentation media” value ([1]; nisin A 3.08 μg/g (tube A5)) was 0.350 %/brix. For the same substance, the “lactic acid in the fermentation media” value ([1]; nisin A 3.08 μg/g (tube A5)) was 4.672 %/brix, the “maltose in the fermentation media” value ([1]; nisin A 3.08 μg/g (tube A5)) was 0.598 %/brix and the “acetic acid in the fermentation media” value ([1]; nisin A 3.08 μg/g (tube A5)) was 8.296 %/brix. The “Maltotriose in the fermentation media” value ([1]; nisin A 5.97 μg/g (tube A6)) was 0.288 %/brix, the “ethanol in the fermentation media” value ([1]; nisin A 5.97 μg/g (tube A6)) was 0.057 %/brix and the “formic acid in the fermentation media” value ([1]; nisin A 5.97 μg/g (tube A6)) was 0.280 %/brix. For the same substance, the “fructose in the fermentation media” value ([1]; nisin A 5.97 μg/g (tube A6)) was 0.000 %/brix, the “glucose in the fermentation media” value ([1]; nisin A 5.97 μg/g (tube A6)) was 25.304 %/brix and the “glycerol in the fermentation media” value ([1]; nisin A 5.97 μg/g (tube A6)) was 0.328 %/brix. For the same substance, the “lactic acid in the fermentation media” value ([1]; nisin A 5.97 μg/g (tube A6)) was 2.707 %/brix, the “maltose in the fermentation media” value ([1]; nisin A 5.97 μg/g (tube A6)) was 0.941 %/brix and the “acetic acid in the fermentation media” value ([1]; nisin A 5.97 μg/g (tube A6)) was 8.143 %/brix. The “Maltotriose in the fermentation media” value ([1]; nisin A 8.86 μg/g (tube A7)) was 0.419 %/brix, the “ethanol in the fermentation media” value ([1]; nisin A 8.86 μg/g (tube A7)) was 0.055 %/brix and the “formic acid in the fermentation media” value ([1]; nisin A 8.86 μg/g (tube A7)) was 0.234 %/brix. The “fructose in the fermentation media” value ([1]; nisin A 8.86 μg/g (tube A7)) was 0.000 %/brix, the “glucose in the fermentation media” value ([1]; nisin A 8.86 μg/g (tube A7)) was 25.444 %/brix and the “glycerol in the fermentation media” value ([1]; nisin A 8.86 μg/g (tube A7)) was 0.299 %/brix. For the same substance, the “lactic acid in the fermentation media” value ([1]; nisin A 8.86 μg/g (tube A7)) was 1.521 %/brix, the “maltose in the fermentation media” value ([1]; nisin A 8.86 μg/g (tube A7)) was 0.775 %/brix and the “acetic acid in the fermentation media” value ([1]; nisin A 8.86 μg/g (tube A7)) was 7.899 %/brix. The “Maltotriose in the fermentation media” value ([1]; nisin A 11.87 μg/g (tube A8)) was 0.305 %/brix, the “ethanol in the fermentation media” value ([1]; nisin A 11.87 μg/g (tube A8)) was 0.071 %/brix and the “formic acid in the fermentation media” value ([1]; nisin A 11.87 μg/g (tube A8)) was 0.233 %/brix. The “fructose in the fermentation media” value ([1]; nisin A 11.87 μg/g (tube A8)) was 0.000 %/brix, the “glucose in the fermentation media” value ([1]; nisin A 11.87 μg/g (tube A8)) was 25.537 %/brix and the “glycerol in the fermentation media” value ([1]; nisin A 11.87 μg/g (tube A8)) was 0.301 %/brix. For the same substance, the “lactic acid in the fermentation media” value ([1]; nisin A 11.87 μg/g (tube A8)) was 1.579 %/brix, the “maltose in the fermentation media” value ([1]; nisin A 11.87 μg/g (tube A8)) was 0.739 %/brix and the “acetic acid in the fermentation media” value ([1]; nisin A 11.87 μg/g (tube A8)) was 8.091 %/brix. For the same substance, the “inhibition of bacterial growth” value [2] was “can effectively inhibit”, the “91516 ABS 610f” value ([2]; nisin A 0.33 μg/g (tube A2)) was 1.568 and the “91516 ABS 610f” value ([2]; nisin A 0.68 μg/g (tube A3)) was 1.531. For the same substance, the “91516 ABS 610f” value ([2]; nisin A 1.38 μg/g (tube A4)) was 1.334, the “91516 ABS 610f” value ([2]; nisin A 3.08 μg/g (tube A5)) was 0.911 and the “91516 ABS 610f” value ([2]; nisin A 5.97 μg/g (tube A6)) was 0.536. The “91516 ABS 610f” value ([2]; nisin A 8.86 μg/g (tube A7)) was 0.403, the “91516 ABS 610f” value ([2]; nisin A 11.87 μg/g (tube A8)) was 0.361 and the “Corrected ABS 610rs” value ([2]; nisin A 0.33 μg/g (tube A2)) was 1.106. For the same substance, the “Corrected ABS 610rs” value ([2]; nisin A 0.68 μg/g (tube A3)) was 1.063, the “Corrected ABS 610rs” value ([2]; nisin A 1.38 μg/g (tube A4)) was 0.868 and the “Corrected ABS 610rs” value ([2]; nisin A 3.08 μg/g (tube A5)) was 0.473. The “Corrected ABS 610rs” value ([2]; nisin A 5.97 μg/g (tube A6)) was 0.116, the “Corrected ABS 610rs” value ([2]; nisin A 8.86 μg/g (tube A7)) was 0.001 and the “Corrected ABS 610rs” value ([2]; nisin A 11.87 μg/g (tube A8)) was 0.001.
